Molecules are shown by their SMILES. Calls of active or inactive are those of the source. No cut-off for these calls is given here. Bounds are passed on as bounds.

This is an account of results in ChEMBL document CHEMBL3044839, “Bisdesmosidic saponins from Securidaca longepedunculata roots: evaluation of deterrency and toxicity to Coleopteran storage pests” (2009).

The subject of experiment [1] is Sitophilus zeamais. Nature of the experiment: Insecticidal activity against adult Sitophilus zeamais in compound pretreated stored maize commodities assessed as decrease in number of damaged seeds at 2.5 mg measured after 2 weeks (reference value: >95%). In kind it is functional. Also on record: scale not given: the % may be the effect or the level left.
Experiment [2] relates to Callosobruchus maculatus. Nature of the experiment: Insecticidal activity against Callosobruchus maculatus in compound pretreated stored cowpea commodities assessed as decrease in egg hatching on the surface of seeds at 2.5 mg. In kind it is functional, organism-based.
Experiment [3] concerns Callosobruchus maculatus. Nature of the experiment: Insecticidal activity against adult Callosobruchus maculatus in compound pretreated stored cowpea commodities assessed as decrease in number of oviposted eggs on the surface of seeds at 2.5 mg by choice bioassay. The format is functional, organism-based.
The test system of experiment [4] is Callosobruchus maculatus. Nature of the experiment: Insecticidal activity against Callosobruchus maculatus in compound pretreated stored cowpea commodities assessed as decrease in number of adults emerging in F1 generation at 2.5 mg. The format is functional, organism-based.
For experiment [5], the system named is Sitophilus zeamais. Nature of the experiment: Insecticidal activity against adult Sitophilus zeamais in compound pretreated stored maize commodities assessed as mortality at 2.5 mg measured after 2 weeks. In kind it is functional, organism-based.

On to `COc1ccc(C=CC(=O)O[C@@H]2[C@H](O)[C@@H](O[C@@H]3O[C@@H](C)[C@H](O[C@@H]4OC[C@@H](O)[C@H](O[C@@H]5OC[C@H](O)[C@H](O)[C@H]5O)[C@H]4O)[C@@H](O[C@@H]4OC[C@](O)(CO)[C@H]4O)[C@H]3O)[C@H](OC(=O)[C@]34CCC(C)(C)C[C@H]3C3=CC[C@@H]5[C@@]6(C)C[C@H](O)[C@H](O[C@@H]7O[C@H](CO)[C@@H](O)[C@H](O)[C@H]7O)[C@@](C)(C(=O)O)[C@@H]6CC[C@@]5(C)[C@]3(C)CC4)O[C@@H]2C)cc1`, for which the Activity in experiment [1] was less than 35%. Moreover, the outcome in experiment [2], in experiment [3] and in experiment [4] was Active. The mortality entry in experiment [5] is “Active”.
